Data: paper PMC1968247 (British Journal of Cancer, 1993)
“And” between values parts separate entries of the source, which are not always exact repeats. Identical values can stand only once. Like-named read-outs stand apart in the source and are kept apart here.

Experiments:
[1] = system: MAC 15A; assay: In vitro chemosensitivity, MTT assay; type: cell-based, murine; conditions: area under decay curve of the IC50 over the MTT assay
Experimental: (§1) Br. J. Cancer (1993), 67, 441 446 t? […] Bibby Clinical Oncology Unit, University of Bradford, West Yorkshire, BD7 JDP, UK. […] In vivo anti-tumour activity was examined against three transplantable adenocarcinomas of the mouse colon and in vivo bone marrow toxicity was assessed using a spleen colony forming unit assay. The pharmacokinetic behaviour of the drug in vivo and drug stability in vitro was analysed by gas chromatography with electron capture detection. […] Clinical responses to cytotoxic agents have been largely restricted to the haematological malignancies while the majority of human solid tumours have remained refractory to chemotherapy (Marsoni et al., 1987). […] However, their clinical usefulness has been limited by non-selective host toxicity, particularly myelosuppres- sion. The chloroethylnitrosoureas decompose spontaneously in aqueous solution to generate reactive intermediates that are capable of alkylating and carbamoylating nucleophilic targets (Cheng et al., 1972). Alkylation reactions consist of chloroethylations and hydroxyethylations of DNA (Tong et al., 1982). Chloroethylation of 06-guanine with subsequent cross-link formation is considered to be the most important cytotoxic reaction (Lown et al., 1978) while hydroxyethyla- tion reactions are thought to be responsible for their mutagenic and carcinogenic effects (Pelfrene et al., 1976; Swenson et al., 1979). […] In the search for other types of compound that would chloroethylate DNA, a series of 2-haloethylsulphonates was synthesised (Shealy et al., 1983). […] Recently, the NCI has introduced a new disease-orientated screening programme based on the assessment of the in vitro cytotoxicity of a panel of cell lines representing the common clinical forms of human cancers using a colorimetric assay (Boyd, 1989). […] One reason for this discrepancy is that the in vitro tests ignore the potential role played by the pharmacokinetic behaviour and bioavailability of a drug in determining tumour responses in vivo. […] It has been used extensively as part of the pre-clinical evaluation of new anti-cancer agents within the Screening and Pharmacology Group of the EORTC (Bibby et al., 1988b). The feasibility of performing minimal toxicity studies in conjunction with anti-tumour studies has been described (Bibby et al., 1988b). […] Correspondence: A.M. Matthew. Received 6 December 1991; and in revised form 13 October 1992. Br. J. Cancer (1993), 67, 441-446 '?" Macmillan Press Ltd., 1993 442 A.M. MATIHEW et al. ethylating agents with improved therapeutic indices. The assessment of stem cell survival has been recommended to study irreversible cytotoxic bone marrow injury (Schofield, 1986) and this can be performed readily in mice using a spleen colony forming unit assay. […] In vitro activity was assessed against a panel of established murine and human tumour cell lines while in vivo anti-tumour responses were evaluated against an ascitic tumour, MAC 15A, and two solid subcutaneous (sc) tumours, MAC 13 and MAC 26. MAC 13 is relatively nitrosourea-sensitive due to a low level of the repair enzyme 06-alkylguanine-DNA alkyltransferase while MAC 26 is relatively nitrosourea-resistant due to a high repair enzyme level (Lunn et al., 1989). […] Chemosensitivity testing In vitro chemosensitivity was assessed using a modified micro-tetrazolium (MTT) assay (Twenty- man & Luscombe, 1987).

[2] = system: MAC 16; assay: In vitro chemosensitivity, MTT assay; type: cell-based, murine; conditions: area under decay curve of the IC50 over the MTT assay
Experimental: as §1

[3] = system: MAC 26; assay: In vitro chemosensitivity, MTT assay; type: cell-based, murine
Experimental: as §1

[4] = system: WEHI-3B; assay: In vitro chemosensitivity, MTT assay; type: cell-based, murine; conditions: area under decay curve of the IC50 over the MTT assay
Experimental: as §1

[5] = system: DLD-1; assay: In vitro chemosensitivity, MTT assay; type: cell-based, human
Experimental: (§2) Br. J. Cancer (1993), 67, 441 446 t? […] Bibby Clinical Oncology Unit, University of Bradford, West Yorkshire, BD7 JDP, UK. […] In vivo anti-tumour activity was examined against three transplantable adenocarcinomas of the mouse colon and in vivo bone marrow toxicity was assessed using a spleen colony forming unit assay. The pharmacokinetic behaviour of the drug in vivo and drug stability in vitro was analysed by gas chromatography with electron capture detection. […] Clinical responses to cytotoxic agents have been largely restricted to the haematological malignancies while the majority of human solid tumours have remained refractory to chemotherapy (Marsoni et al., 1987). […] However, their clinical usefulness has been limited by non-selective host toxicity, particularly myelosuppres- sion. The chloroethylnitrosoureas decompose spontaneously in aqueous solution to generate reactive intermediates that are capable of alkylating and carbamoylating nucleophilic targets (Cheng et al., 1972). Alkylation reactions consist of chloroethylations and hydroxyethylations of DNA (Tong et al., 1982). Chloroethylation of 06-guanine with subsequent cross-link formation is considered to be the most important cytotoxic reaction (Lown et al., 1978) while hydroxyethyla- tion reactions are thought to be responsible for their mutagenic and carcinogenic effects (Pelfrene et al., 1976; Swenson et al., 1979). […] In the search for other types of compound that would chloroethylate DNA, a series of 2-haloethylsulphonates was synthesised (Shealy et al., 1983). […] Recently, the NCI has introduced a new disease-orientated screening programme based on the assessment of the in vitro cytotoxicity of a panel of cell lines representing the common clinical forms of human cancers using a colorimetric assay (Boyd, 1989). […] One reason for this discrepancy is that the in vitro tests ignore the potential role played by the pharmacokinetic behaviour and bioavailability of a drug in determining tumour responses in vivo. […] It has been used extensively as part of the pre-clinical evaluation of new anti-cancer agents within the Screening and Pharmacology Group of the EORTC (Bibby et al., 1988b). The feasibility of performing minimal toxicity studies in conjunction with anti-tumour studies has been described (Bibby et al., 1988b). […] Correspondence: A.M. Matthew. Received 6 December 1991; and in revised form 13 October 1992. Br. J. Cancer (1993), 67, 441-446 '?" Macmillan Press Ltd., 1993 442 A.M. MATIHEW et al. ethylating agents with improved therapeutic indices. The assessment of stem cell survival has been recommended to study irreversible cytotoxic bone marrow injury (Schofield, 1986) and this can be performed readily in mice using a spleen colony forming unit assay. […] In vitro activity was assessed against a panel of established murine and human tumour cell lines while in vivo anti-tumour responses were evaluated against an ascitic tumour, MAC 15A, and two solid subcutaneous (sc) tumours, MAC 13 and MAC 26. MAC 13 is relatively nitrosourea-sensitive due to a low level of the repair enzyme 06-alkylguanine-DNA alkyltransferase while MAC 26 is relatively nitrosourea-resistant due to a high repair enzyme level (Lunn et al., 1989). In vivo bone marrow toxicity and pharmacokinetic studies and in vitro drug stability studies were performed in conjunction with the anti-tumour studies. […] Chlorozotocin was dissolved in 10% dimethylsulphoxide (DMSO)/arachis oil. Drug solutions were prepared at an appropriate concentration for the desired in vivo dose to be administered in 0.1 ml per 10 g body weight by intra- peritoneal (ip) or intravenous (iv) injection and for the desired final concentration in vitro to be achieved upon a 1 in 10 dilution. […] Chemosensitivity testing In vitro chemosensitivity was assessed using a modified micro-tetrazolium (MTT) assay (Twenty- man & Luscombe, 1987).

[6] = system: HCLO; assay: In vitro chemosensitivity, MTT assay; type: cell-based, human; conditions: area under decay curve of the IC50 over the MTT assay
Experimental: as §2

[7] = system: HCT-18; assay: In vitro chemosensitivity, MTT assay; type: cell-based, human
Experimental: as §2

[8] = system: HRT-18; assay: In vitro chemosensitivity, MTT assay; type: cell-based, human
Experimental: as §2

[9] = system: HT-29; assay: In vitro chemosensitivity, MTT assay; type: cell-based, human
Experimental: as §2

[10] = system: K562; assay: In vitro chemosensitivity, MTT assay; type: cell-based, human; conditions: area under decay curve of the IC50 over the MTT assay
Experimental: as §2

[11] = system: MAC 15A ascites tumour; assay: Anti-tumour activity against MAC 15A (median survival time); type: in vivo, NMRI mice
Experimental: as §2

[12] = system: MAC 13 tumours; assay: Anti-tumour activity against MAC 13 (tumour weight); type: in vivo, NMRI mice
Experimental: as §2

[13] = system: MAC 26 tumours; conditions: for Tumour growth delay: MAC 26; for Survivors: MAC 26 bearers
Experimental: as §2

[14] = system: bone marrow; conditions: for Survival fraction: 24 h
Experimental: as §2

[15] = Pharmacokinetic study, plasma Clomesone by gas chromatography; conditions: 50 mg kg-1 ip
Experimental: as §2

[16] = In vitro stability in complete RPMI 1640 tissue culture medium; type: in vitro ADME; conditions: complete RPMI 1640 medium, 37 C, initial 10 ug/ml
Experimental: (§3) Br. J. Cancer (1993), 67, 441 446 t? […] Bibby Clinical Oncology Unit, University of Bradford, West Yorkshire, BD7 JDP, UK. […] In vivo anti-tumour activity was examined against three transplantable adenocarcinomas of the mouse colon and in vivo bone marrow toxicity was assessed using a spleen colony forming unit assay. The pharmacokinetic behaviour of the drug in vivo and drug stability in vitro was analysed by gas chromatography with electron capture detection. […] Clinical responses to cytotoxic agents have been largely restricted to the haematological malignancies while the majority of human solid tumours have remained refractory to chemotherapy (Marsoni et al., 1987). […] However, their clinical usefulness has been limited by non-selective host toxicity, particularly myelosuppres- sion. […] The assessment of stem cell survival has been recommended to study irreversible cytotoxic bone marrow injury (Schofield, 1986) and this can be performed readily in mice using a spleen colony forming unit assay. […] In vitro activity was assessed against a panel of established murine and human tumour cell lines while in vivo anti-tumour responses were evaluated against an ascitic tumour, MAC 15A, and two solid subcutaneous (sc) tumours, MAC 13 and MAC 26. […] Chemosensitivity testing In vitro chemosensitivity was assessed using a modified micro-tetrazolium (MTT) assay (Twenty- man & Luscombe, 1987).

[17] = Maximum tolerated dose, full dose range to the point of toxicity; conditions: ip, mice
Experimental: as §3, with “sion. The chloroethylnitrosoureas decompose spontaneously in aqueous solution to generate reactive intermediates that are capable of alkylating and carbamoylating nucleophilic targets (Cheng et al., 1972). Alkylation reactions consist of chloroethylations and hydroxyethylations of DNA (Tong et al., 1982). Chloroethylation of 06-guanine with subsequent cross-link formation is considered to be the most important cytotoxic reaction (Lown et al., 1978) while hydroxyethyla- tion reactions are thought to be responsible for their mutagenic and carcinogenic effects (Pelfrene et al., 1976; Swenson et al., 1979).” for “sion.”

[18] = parameters: method as in Chan & Barrientos, 1988; conditions: previously reported; ref Chan & Barrientos, 1988; cited from earlier work
[19] = system: P388 leukaemia; parameters: method as in Shealy et al., 1984; conditions: ref Shealy et al., 1984; cited from earlier work
[20] = area under decay curve of the IC50 over the MTT assay

For `CS(=O)(=O)CS(=O)(=O)OCCCl` [Clomesone, 2-chloroethyl(methylsulphonyl)methanesulphonate], the “c x t (concentration-time product)” value [1] was 54 fig h ml- ', the “c x t (concentration-time product)” value [2] was 177 fig h ml- ' and the IC50 ([3]; MTT, 4 days, one experiment only) was 35 igm9l-'. For the same compound, the “c x t (concentration-time product)” value [3, 20] was 185 fig h ml- ', the “c x t (concentration-time product)” value [4] was 150 fig h ml- ' and the IC50 ([5]; MTT, 4 days, n = 4) was > 100 igm9l-'. For the same compound, the “c x t (concentration-time product)” value [5, 20] was > 528 fig h ml- ', the “c x t (concentration-time product)” value [6] was 146 fig h ml- ' and the IC50 ([7]; MTT, 4 days, n = 4) was > 100 igm9l-'. The “c x t (concentration-time product)” value [7, 20] was > 528 fig h ml- ', the IC50 ([8]; MTT, 4 days, n = 4) was > 100 igm9l-' and the “c x t (concentration-time product)” value [8, 20] was > 528 fig h ml- '. The IC50 ([9]; MTT, 4 days, n = 4) was > 100 igm9l-', the “c x t (concentration-time product)” value [9, 20] was > 528 fig h ml- ' and the “c x t (concentration-time product)” value [10] was 207 fig h ml- '. It also gave a T/C% ([11]; 12.5 mg kg-1 ip) of 88%, a T/C% ([11]; 12.5 mg kg-1 iv) of 100% and a T/C% ([11]; 25 mg kg-1 ip) of 138%. The T/C% ([11]; 25 mg kg-1 iv) was 100%, the T/C% ([11]; 50 mg kg-1 ip) was 163% and the T/C% ([11]; 50 mg kg-1 iv) was 125%. For the same compound, the T/C% ([11]; 100 mg kg-1 ip, median survival time treated/control) was 133% and 163%, the “% Tumour weight inhibition” value ([12]; 12.5 mg kg-1 ip) was 21.6% and the “% Tumour weight inhibition” value ([12]; 12.5 mg kg-1 iv) was 45.9%. For the same compound, the “% Tumour weight inhibition” value ([12]; 25 mg kg-1 ip) was 13.5%, the “% Tumour weight inhibition” value ([12]; 25 mg kg-1 iv) was 21.6% and the “% Tumour weight inhibition” value ([12]; 50 mg kg-1 iv) was 47.3%. For the same compound, the “% Tumour weight inhibition” value ([12]; 100 mg kg-1 ip, assessed 17 days later) was 48.3%, the Tumour growth delay ([13]; 25 mg kg-1 ip) was 0 days and the Tumour growth delay ([13]; 50 mg kg-1 ip) was 0.8 days. The Tumour growth delay ([13]; 100 mg kg-1 ip) was 0.8 days, the Survivors ([13]; 25 mg kg-1 ip) was 10/10 and the Survivors ([13]; 50 mg kg-1 ip) was 10/10. For the same compound, the Survivors ([13]; 100 mg kg-1 ip) was 10/10, the Survivors ([13]; 150 mg kg-1 ip) was 0/10 and the Survivors ([13]; 200 mg kg-1 ip) was 0/10. The Survival fraction ([14]; 25 mg kg-1 ip) was 0.80, the Survival fraction ([14]; 50 mg kg-1 ip) was 0.59 and the Survival fraction ([14]; 100 mg kg-1 ip, colonies observed vs expected) was 0.20 and 0.16. For the same compound, the “reduction in colony forming units” value ([14]; maximum tolerated dose of 100 mg kg-1 ip) was 5 fold, the “Time to peak plasma levels” value [15] was ≤ 2 min and the “area under the plasma concentration versus time curve, mean value” [15] was 6.77 .ghmlh'. The “areas under the plasma concentration versus time curves, range” value [15] was 5.70-8.04 lagh ml-', the “Peak plasma levels, mean value” ([15]; female non-tumour bearing mice, three experiments) was 28.0 ggmlh' and the mean terminal half-life ([15]; plasma) was 8.1 min. The “terminal half-life, range” value ([15]; plasma) was 4.8 to 10.8 min, the “Peak plasma levels, range” value ([15]; three experiments) was 18.1-35.9 jigml-' and the “1st order rate constant (k) of degradation” value [16] was 0.205. The “t1/2 in tissue culture medium” value [16] was 203 min, the Maximum tolerated dose [17] was 100 mg kg-' and the “t1/2 in mouse plasma” value [18] was 51 min. For the same compound, the “Activity against P388 leukaemia in vivo (in words)” value [19] was “highly effective”.
